Laboratory results: the supplement of paper PMC10307832

Columns and labels:
[1] = compound: CC1CC(=O)N(C2=CN=C(N=C2N1C3CCCC3)NC4=C(C=C(C=C4)C(=O)NC5CCN(CC5)C)OC)C [NPK76-II-72-1] + Cc1nc(Nc2ncc(C(=O)Nc3c(C)cccc3Cl)s2)cc(N2CCN(CCO)CC2)n1 [Dasatinib] (partner 0.075 µM); experiment: relative viability (nuclei count vs DMSO), 5 days (fraction); higher = more cells survive
In short: (§1)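 Values are medians from duplicate plates. Each reflects relative viability, defined as the nuclei count of treated wells over that of vehicle wells. Lung cancer cell lines in 1536-well plates were pin-tool dosed one day after seeding with one drug alone or with a fixed anchor-drug dose plus five library-drug doses (not always all listed) in √10 steps, then fixed, stained and imaged at 4× after 5 days.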

[2] = compound: CC1CC(=O)N(C2=CN=C(N=C2N1C3CCCC3)NC4=C(C=C(C=C4)C(=O)NC5CCN(CC5)C)OC)C [NPK76-II-72-1] + CCNC(=O)c1noc(-c2cc(C(C)C)c(O)cc2O)c1-c1ccc(CN2CCOCC2)cc1 [Luminespib] (partner 0.01 µM); experiment: as above
In short: as §1

Row | Cell Line | relative viability ([1]; first compound 0.01 µM) | relative viability ([1]; first compound 0.03162 µM) | relative viability ([1]; first compound 0.1 µM) | relative viability ([1]; first compound 0.3162 µM) | relative viability ([1]; first compound 1 µM) | relative viability ([2]; first compound 0.01 µM) | relative viability ([2]; first compound 0.03162 µM) | relative viability ([2]; first compound 0.1 µM) | relative viability ([2]; first compound 0.3162 µM) | relative viability ([2]; first compound 1 µM)
1 | LCLC-103H | 0.418 | 0.442 | 0.404 | 0.535 | 0.447 | 0.9 | 1.05 | 0.919 | 1.03 | 1.01
2 | LCLC-97TM1 | 0.896 | 0.917 | 0.822 | 0.785 | 0.8 | 0.673 | 0.768 | 0.532 | 0.748 | 0.748
3 | NCI-H727 | 0.327 | 0.298 | 0.316 | 0.397 | 0.409 | 0.29 | 0.31 | 0.288 | 0.246 | 0.412
4 | NCI-H1355 | 0.689 | 0.627 | 0.744 | 0.617 | 0.731 | 0.678 | 0.716 | 0.756 | 0.67 | 0.763
5 | HOP-62 | 0.585 | 0.653 | 0.633 | 0.672 | 0.64 | 0.975 | 1.04 | 0.885 | 0.789 | 0.992
6 | NCI-H2085 | 0.258 | 0.266 | 0.24 | 0.227 | 0.22 | 0.442 | 0.437 | 0.391 | 0.381 | 0.437
